Laboratory results taken from paper PMC5126668 (PeerJ, 2016).
“And” between values parts separate entries of the source, which are not always exact repeats. Identical values can stand only once. Like-named read-outs stand apart in the source and are kept apart here.

How the values were obtained:
[1] = HK-2 cell viability, MTT assay, with or without co-cultured HLMs; format: cell-based, human; settings: human; for viability at 4 h, 30 µM: BAK 30 µM; for viability at 4 h, 75 µM: BAK 75 µM; for viability at 4 h, 90 µM: BAK 90 µM; for viability at 4 h, 45 µM: BAK 45 µM; for viability at 4 h, 60 µM: BAK 60 µM
Procedure: (§1) HK-2 cells obtained from Peking Union Medical College were maintained in D/F12 medium containing 10% fetal bovine serum, 2 mM glutamine and 1 × 10^5 U/L penicillin and streptomycin at 37 °C in a 5% CO2 atmosphere. […] The samples containing HLMs were prepared in an ice bath, and three replicates were tested for each dose. In brief, HK-2 cells (100 µL) were seeded at 3 × 10^5cells/mL in 96-well plates. After 12 h, 200 µL of the test compound was added. For the BAK and GA with HLMs group, GA was pre-incubated with NADPH in HLMs for 30 min at 37 °C and then mixed with BAK; for the other groups, all tested compounds except NADPH were mixed, and NADPH was then added to start the metabolic reaction. After 4 h of culture, 100 µL of 0.5 g/L MTT was added, and the cells were cultured for 4 h. Subsequently, 150 µL of 4% isopropanol was added to cells for 15 min at 37 °C, and the absorbance at 570 nm was then read by a microplate reader (Multiskan MK3, Thermo, USA). The relative cell viability (%) was calculated as follows: Mean Absorbance of Sample/Mean Absorbance of Vehicle Control × 100%.

[2] = test system: HK-2 cells; assay: as above; format: cell-based, human; settings: BAK combined with GA
Procedure: as §1

[3] = Toxicokinetics of BAK in rat plasma after a single oral dose; format: in vivo, Sprague–Dawley rats
Procedure: ABT, a broad-spectrum nonspecific CYP inhibitor, was selected as a positive control inhibitor of CYP enzymes. Aristolochic acid A (AA I) was selected as the nephrotoxicity positive control in the study.
The plasma samples were separated by centrifugation at 4000 rpm for 15 min. […] Subsequently, 10 µL of internal standard solution (tanshinone II A, 10 µg/mL) and 0.3 mL of acetonitrile were added to 0.1 mL of plasma or homogenates, and centrifuged at 13,300 rpm for 15 min after 2 min of vortexing. The supernatant was reconstituted in 100 µL of mobile phase after drying under 40 °C nitrogen, the mixture then was vortexed for 5 min and centrifuged at 13,300 rpm for 15 min. Finally, 20 µL of supernatant was injected for HPLC analysis.
The mobile phase consisted of methanol and water with 0.1% formic acid (89:11, v/v) and was supplied at a flow rate of 0.8 mL/min. The detection wavelength was set to 262 nm.

[4] = test system: BAK metabolism in HLMs; assay: Metabolic elimination of BAK in HLMs and its inhibition by GA (HPLC); format: in vitro ADME, human; settings: for Remaining percentage of BAK (%) / remaining of BAK (%), single samples: BAK 10 µM; for Remaining percentage of BAK (%): HLMs 0.5 g/L, mean; for remaining of BAK (%), single samples: t=30 min
Procedure: The HLM mixtures were prepared on ice. […] At the end of the incubation (0 or 30 min), 200 µL of methanol-acetonitrile (1:1, V:V) solution containing tanshinone II A (internal standard) was added to terminate the reaction. The mixtures were then vortexed for 2 min followed by centrifugation at 14,500 rpm for 10 min. A 10 µL aliquot of the supernatant was then injected for HPLC analysis. […] RContr is the percentage of BAK remaining in the BAK group.

[5] = with HLM, raw data, read-out: cell viability(%), single values
[6] = HK-2 cells co-cultured with HLMs (0.16 g/L), with HLMs 0.16 g/L, 4 h, mean, read-out: HK-2 Cell viability (%)
[7] = HK-2 cells, without HLMs, without HLMs, 4 h, mean, read-out: HK-2 Cell viability (%)
[8] = Sprague-Dawley, plasma, rat, single oral, BAK 200 mg/kg, with ABT or GA 100 mg/kg where named
[9] = rat, single oral, BAK 200 mg/kg, with ABT or GA 100 mg/kg where named

Compound `C=C[C@@](C)(/C=C/c1ccc(O)cc1)CCC=C(C)C` [BAK, Bakuchiol] has a viability at 4 h, 30 µM [1, 5] of 98.8%, a viability at 4 h, 75 µM [1, 5] of 108% and a viability at 4 h, 90 µM [1, 5] of 88.2%. For the same compound, the viability at 4 h, 30 µM [1, 6] was 104 ± 4.32%, the viability at 4 h, 45 µM ([1]; HK-2 cells co-cultured with HLMs (0.16 g/L), with HLMs 0.16 g/L, 4 h, mean) was 105 ± 9.39% and the viability at 4 h, 60 µM [1, 6] was 101 ± 9.76%. It also gave a viability at 4 h, 75 µM [1, 6] of 109 ± 3.19%, a viability at 4 h, 90 µM [1, 6] of 92.5 ± 2.07% and a viability at 4 h, 60 µM ([1]; HK-2 cells, without HLM, raw data, read-out: cell viability(%), single values) of 80.5%. For the same compound, the viability at 4 h, 30 µM [1, 7] was 97.7 ± 10.7%, the viability at 4 h, 45 µM ([1]; HK-2 cells, without HLMs, 4 h, mean) was 84.6 ± 13.8% and the viability at 4 h, 60 µM [1, 7] was 77.5 ± 4.69%. For the same compound, the viability at 4 h, 75 µM [1, 7] was 55 ± 11.3%, the viability at 4 h, 90 µM [1, 7] was 46.3 ± 12.5% and the “decreases in viability of HK-2 cells” value [2] was 25∼40%. For the same compound, the “BAK concentration in rat plasma, single rats 1-5” value (“BAK concentration in rat plasma” for short) ([3]; 0.083 h after single oral dose) was 19.440 ng/mL and 20.126 ng/mL and 124.551 ng/mL and 203.437 ng/mL and 45.002 ng/mL, the “BAK concentration in rat plasma” value ([3]; 0.500 h after single oral dose) was 298.348 ng/mL and 315.739 ng/mL and 248.132 ng/mL and 249.198 ng/mL and the “BAK concentration in rat plasma” value ([3]; 1.000 h after single oral dose) was 370.910 ng/mL and 622.012 ng/mL and 388.077 ng/mL and 359.422 ng/mL and 237.838 ng/mL. For the same compound, the “BAK concentration in rat plasma” value ([3]; 2.000 h after single oral dose) was 741.835 ng/mL and 1388.336 ng/mL and 509.873 ng/mL and 610.667 ng/mL and 641.059 ng/mL, the “BAK concentration in rat plasma” value ([3]; 4.000 h after single oral dose) was 1167.913 ng/mL and 614.550 ng/mL and 628.766 ng/mL and 924.718 ng/mL and the “BAK concentration in rat plasma” value ([3]; 8.000 h after single oral dose) was 297.448 ng/mL and 580.240 ng/mL and 453.584 ng/mL and 180.567 ng/mL and 336.676 ng/mL. For the same compound, the “BAK concentration in rat plasma” value ([3]; 12.00 h after single oral dose) was 101.667 ng/mL and 221.273 ng/mL and 140.087 ng/mL and 93.481 ng/mL and 214.562 ng/mL, the “BAK concentration in rat plasma” value ([3]; 24.00 h after single oral dose) was 76.407 ng/mL and 58.961 ng/mL and 54.579 ng/mL and 73.723 ng/mL and the Cmax [3, 8] was 887 ± 281 ng/mL. The MRT [3, 8] was 6.79 ± 0.43 h, the Tmax [3, 8] was 3.6 ± 0.89 h and the AUC(0-t) ([3]; Sprague-Dawley, plasma, rat, single oral, BAK 200 mg/kg, with ABT or GA 100 mg/kg where named, read-out: AUC0−24 of BAK) was 7260 ng·h/mL. For the same compound, the concentration at 0.083 h ([3]; Sprague-Dawley, rat, plasma, po, 200 mg/kg, 0.083 h after single oral dose) was 82.5 ng/mL, the concentration at 0.5 h ([3]; Sprague-Dawley, rat, plasma, po, 200 mg/kg, 0.500 h after single oral dose, read-out: BAK concentration in rat plasma, mean) was 273 ng/mL and the concentration at 0.5 h ([3]; Sprague-Dawley, rat, plasma, po, 200 mg/kg, 0.500 h after single oral dose, read-out: BAK concentration in rat plasma, single rats 1-5) was 256 ng/mL. The concentration at 1 h ([3]; Sprague-Dawley, rat, plasma, po, 200 mg/kg, 1.000 h after single oral dose) was 396 ng/mL, the concentration at 2 h ([3]; Sprague-Dawley, rat, plasma, po, 200 mg/kg, 2.000 h after single oral dose) was 778 ng/mL and the concentration at 4 h ([3]; Sprague-Dawley, rat, plasma, po, 200 mg/kg, 4.000 h after single oral dose, read-out: BAK concentration in rat plasma, mean) was 843 ng/mL. The concentration at 4 h ([3]; Sprague-Dawley, rat, plasma, po, 200 mg/kg, 4.000 h after single oral dose, read-out: BAK concentration in rat plasma, single rats 1-5) was 881 ng/mL, the concentration at 8 h ([3]; Sprague-Dawley, rat, plasma, po, 200 mg/kg, 8.000 h after single oral dose) was 370 ng/mL and the concentration at 12 h ([3]; Sprague-Dawley, rat, plasma, po, 200 mg/kg, 12.00 h after single oral dose) was 154 ng/mL. The concentration at 24 h ([3]; Sprague-Dawley, rat, plasma, po, 200 mg/kg, 24.00 h after single oral dose, read-out: BAK concentration in rat plasma, mean) was 68.1 ng/mL, the concentration at 24 h ([3]; Sprague-Dawley, rat, plasma, po, 200 mg/kg, 24.00 h after single oral dose, read-out: BAK concentration in rat plasma, single rats 1-5) was 76.9 ng/mL and the concentration at 24 h ([3]; Sprague-Dawley, rat, plasma, po, 200 mg/kg, rat, 24 h after single oral dose, read-out: Exposure of BAK, Plasma, mean) was 68.1 ng/g. For the same compound, the concentration at 24 h ([3]; Sprague-Dawley, rat, plasma, po, 200 mg/kg, rat, 24 h after single oral dose, read-out: Exposure of BAK, Plasma, single rats) was 76.9 ng/g, the “Exposure of BAK, Plasma, single rats” value ([3]; rat, 24 h after single oral dose) was 0.0764 µg/g and 0.0590 µg/g and 0.0546 µg/g and 0.0737 µg/g and the “CL of BAK” value [3, 9] was 470 ± 132 mL/min/kg. The “V of BAK” value [3, 9] was 184.2 ± 58.6 L/kg, the “t1∕2 of BAK” value [3, 9] was 4.71 ± 1.56 h and the “30min BAK metabolic percentage (%)” value ([4]; BAK 10 µM alone, HLMs, 30 min) was 36.51%. For the same compound, the “Remaining percentage of BAK (%)” value ([4]; GA 0 µM, 30 min) was 63.49 ± 6.05% and 63.49%, the “Remaining percentage of BAK (%)” value ([4]; GA 12.5 µM, 30 min) was 71.60 ± 6.40% and 71.60% and the “remaining of BAK (%), single samples” value ([4]; GA 12.5 µM) was 64.61% and 73.02% and 77.17%. For the same compound, the “Remaining percentage of BAK (%)” value ([4]; GA 62.5 µM, 30 min) was 80.10 ± 6.81 % and 80.10%, the “remaining of BAK (%), single samples” value ([4]; GA 62.5 µM) was 85.51% and 72.46% and 82.34% and the “remaining of BAK (%), single samples” value ([4]; GA 93.75 µM) was 73.93% and 93.16% and 104.23%. The “Remaining percentage of BAK (%)” value ([4]; GA 125.0 µM, 30 min) was 97.24 ± 1.46 % and 97.24%, the “remaining of BAK (%), single samples” value ([4]; GA 125 µM) was 98.81% and 95.94% and 96.96% and the “remaining of BAK (%), single samples” value ([4]; no GA, HLM 0.5 mg/ml) was 56.87% and 64.87% and 68.72%.
